Results on four compounds are retold here after ChEMBL document CHEMBL1201862, “PubChem BioAssay data set” (2004).

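How tested: cells in 96-well plates exposed to compound for 48 hours at five concentrations. GI50 = concentration required for 50% inhibition of growth.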 The source made the active and inactive calls. Cut-off read from the data, not from the text of the source: active = GI50 up to about 1.1 µM and inactive = higher. A value given as a limit tells only on which side of the number the result lay.

Test systems include SK-MEL-5; CCRF-CEM; MDA-MB-435; OVCAR-4; NCI-H23; RXF 393; LOX IMVI; CAKI-1; NCI-H522; MDA-N; NCI/ADR-RES; ACHN; MOLT-4; SK-MEL-2; HCT-15; U-251; K562; SK-MEL-28; IGROV-1; T47D.
Test in all cases: inhibition of tumour cell growth, NCI panel, 48 h

As to `N#Cc1c(N)nc2c3c1NC(=O)C(C(N)=O)C3c1ccccc1O2` (stereo not given), the GI50 is > 100 µM (inactive) in the test with SK-MEL-5; 81.1 µM (inactive) in the test on CCRF-CEM; > 100 µM (inactive) in the test with MDA-MB-435; 95.5 µM (inactive) with OVCAR-4; 71.8 µM (inactive) in the test on NCI-H23; 75.2 µM (inactive) in the test with RXF 393. For the same compound, the GI50 in the test with LOX IMVI was > 100 µM (inactive); in the test with CAKI-1, > 100 µM (inactive); in the test with NCI-H522, 22.1 µM (inactive); in the test on MDA-N, > 100 µM (inactive); in the test with NCI/ADR-RES, > 100 µM (inactive); in the test on ACHN, > 100 µM (inactive). Further, the GI50 in the test on MOLT-4 is > 100 µM (inactive); in the test with SK-MEL-2, > 100 µM (inactive); in the test with HCT-15, more than 100 µM; with U-251, > 100 µM (inactive); with K562, > 100 µM (inactive); in the test with SK-MEL-28, > 100 µM (inactive). In addition, the GI50 with IGROV-1 was 17.3 µM (inactive); in the test with T47D it was 95.9 µM (inactive).

On to `O=c1cc(-c2ccccc2)oc2ccc(Cl)cc12` [6-CHLOROFLAVONE], for which the GI50 in the test on SK-MEL-5 is > 100 µM (inactive); in the test with CCRF-CEM, > 77.8 µM (inactive); in the test with MDA-MB-435 it was > 41.5 µM (inactive); in the test with OVCAR-4, > 44.3 µM (inactive); in the test on NCI-H23 it was 49.9 µM (inactive); with RXF 393, 31.4 µM (inactive). Moreover, the GI50 in the test on LOX IMVI is > 56.4 µM (inactive); with CAKI-1 it was > 62.1 µM (inactive); with NCI-H522, 64.3 µM (inactive); in the test with MDA-N it was > 41.4 µM (inactive); with NCI/ADR-RES, 57.4 µM (inactive); in the test on ACHN it was 61.2 µM (inactive). In addition, the GI50 is > 74.6 µM (inactive) with MOLT-4; > 84.7 µM (inactive) in the test with SK-MEL-2; more than 100 µM with HCT-15; 37.7 µM (inactive) with U-251; > 74.6 µM (inactive) in the test with K562; > 65.6 µM (inactive) in the test on SK-MEL-28. In addition, the values for the GI50 in the test on IGROV-1 and in the test with T47D were > 82 µM (inactive) and 19.6 µM (inactive), respectively.

Consider `N#CC(C#N)/N=N/c1ccc(-c2nc3ccccc3[nH]2)cc1`, for which the GI50 with SK-MEL-5 is 35.6 µM (inactive); in the test with CCRF-CEM, 9.84 µM (inactive); in the test with MDA-MB-435, 18 µM (inactive); in the test with OVCAR-4, 22 µM (inactive); in the test on NCI-H23 it was 20 µM (inactive); in the test on RXF 393, 19.2 µM (inactive). In addition, the GI50 in the test on LOX IMVI was 14.7 µM (inactive); with CAKI-1 it was 24.5 µM (inactive); in the test with NCI-H522, 2.81 µM (inactive); in the test with MDA-N, 20 µM (inactive); in the test on NCI/ADR-RES it was 17.6 µM (inactive); in the test on ACHN, 13.7 µM (inactive). Further, the GI50 with MOLT-4 is 10.9 µM (inactive); with SK-MEL-2 it was 21.7 µM (inactive); in the test with HCT-15 it was 21.7 µM; with U-251, 28.1 µM (inactive); with K562, 19.6 µM (inactive); with SK-MEL-28 it was 20.2 µM (inactive). For the same compound, the GI50 in the test with IGROV-1 was 16.8 µM (inactive); in the test on T47D, 16.6 µM (inactive).

Turning to `C1C2CC3CC1CC(c1nn4c(C56CC7CC(CC(C7)C5)C6)nnc4s1)(C2)C3`, the GI50 in the test on SK-MEL-5, in the test with CCRF-CEM, in the test on MDA-MB-435, in the test on OVCAR-4, in the test on NCI-H23 and with RXF 393 was > 100 µM (inactive) throughout. Further, the GI50 in the test with LOX IMVI, in the test with CAKI-1, with NCI-H522, in the test with MDA-N, in the test on NCI/ADR-RES and in the test on ACHN was > 100 µM (inactive) in each case. For the same compound, the GI50 with MOLT-4 was > 100 µM (inactive); in the test on SK-MEL-2, > 100 µM (inactive); in the test with HCT-15 it was more than 100 µM; in the test on U-251, > 100 µM (inactive); in the test on K562, > 100 µM (inactive); with SK-MEL-28, > 100 µM (inactive). Further, the GI50 in the test with IGROV-1 and with T47D was > 100 µM (inactive) in each case.
